pIC50: −log10 of the molar value.
Key:
Syk kinase = Syk kinase (Homo sapiens, UniProt P43405); experiment: SYK enzymatic assay; format: biochemical; settings: Tyr 2 Peptide, 8 concentrations 1 μM down to 0.0003 μM
Description: Syk kinase assay are performed in vitro using Kit-Tyr 2 Peptide (Invitrogen, Cat. No. PV3191) and in a 384-well assay plate. […] The 384-well assay plate (Corning, Cat. No. 3575) is mixed and incubated at room temperature for 1 hour. 10 μL of the Development Solution (prepared by diluting Development Reagent A (Cat. No. PV3297) to 1/32 with Development Buffer (Cat. No. PV3127)) is then added to each well, mixed and incubated at room temperature for another 1 hour. The reactions are then stopped by adding 10 μL of the Stop Reagent (Invitrogen, Cat. No. PV3094), and the plate is read with Wallac 1420 VICTOR^3 Multilabel Counter (PerkinElmer™) at 445 nm and 520 nm fluorescence. All compounds are tested at 8 concentrations (1 μM down to 0.0003 μM) using a 1:3 serial dilution scheme.

RBL-2H3 cells = experiment: IgE-induced Beta-hexosaminidase secretion in RBL-2H3 cells; format: cell-based; settings: Rattus norvegicus; RBL-2H3 cells sensitized with SPE-7, stimulated with DNP-BSA
Description: For the determination of IgE-induced Beta-hexosaminidase secretion, RBL-2H3 cells (SIBS) are seeded in 96 well plates at 4×10^4 cells per well and incubated in MEM media with 15% FBS and Glutamine ([…]) for 4 hours and sensitized with 0.5 ug/ml of SPE-7 overnight. Cells are washed 3 times with Tyrode's buffer and incubated in the presence or absence of various concentrations of the testing compound for 20 min at 37° C., 5% CO2. Cells are stimulated by adding 10 μL of DNP-BSA solution (150 ng/mL) to each well and incubating for 45 minutes at 37° C., 5% CO2. Then, 45 μL of the supernatant is taken and incubated with 100 μL of 1 mM 4-Nitrophenyl N-acetyl-β-D-glucosaminide (Sigma, Cat. No. N9376), which is diluted in 0.05 M citrate buffer (pH 4.5), for 1.5 hr at 37° C. The reactions are quenched by adding 185 μL of 0.05 M sodium carbonate buffer (pH 10.0). Plates are read at 405 nm on Multiskan (MK 3).

Flt3 kinase = target: T1, Flt3 kinase (Homo sapiens, UniProt P36888); experiment: Z-lyte kinase assay of Flt-3; format: biochemical; settings: Z-LYTE Tyr 2 peptide; final concentrations 3 to 0.0014 μM
T1 construct: purchased Invitrogen PV3182
T1 sequence (P36888 564-993 limits assumed): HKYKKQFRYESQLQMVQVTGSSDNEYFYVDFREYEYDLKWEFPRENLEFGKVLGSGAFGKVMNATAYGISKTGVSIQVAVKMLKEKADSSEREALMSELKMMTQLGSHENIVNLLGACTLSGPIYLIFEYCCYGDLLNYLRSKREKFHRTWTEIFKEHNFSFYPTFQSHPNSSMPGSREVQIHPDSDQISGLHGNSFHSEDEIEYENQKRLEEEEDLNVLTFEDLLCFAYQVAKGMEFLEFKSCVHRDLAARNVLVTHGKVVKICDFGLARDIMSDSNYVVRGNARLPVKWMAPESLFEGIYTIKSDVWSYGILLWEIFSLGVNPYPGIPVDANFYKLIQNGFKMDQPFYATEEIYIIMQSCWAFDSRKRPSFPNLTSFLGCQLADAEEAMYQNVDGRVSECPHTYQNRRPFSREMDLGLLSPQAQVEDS
Description: Z-lyte kinase assay of Flt-3:
Dilute 5× Kinase Buffer to 1,33× with ddH2O
Serially dilute the test compounds to 4 folds of the concentrations desired, keeping the DMSO concentration at 8%. The final concentrations were 3, 1, 0.33, 0.11, 0.037, 0.012, 0.004, 0.0014 μM, and the final concentration of DMSO was 2%,
Prepare Kinase/Peptide Mixture by diluting the kinase to 0.12 μg/mL and the Z-LYTE™ Tyr 2 peptide to 4 μM in 1.33× Kinase Buffer. Mix gently by pipetting. 4) Phcspho-peptide Solution (PP solution)
Add 0.4 μL of Z-LYTE™ Tyr 2 Phospho-peptide to 99.6 μL of 1.33× Kinase Buffer.
Prepare ATP Solution by diluting the 10 mM of ATP in 1.33× Kinase Buffer to 1.88 mM.
Dilute Development Reagent A with Development Buffer as 1:64.
1) Kinase reaction (10 μL of Volume) • a. Add 2.5 μL of 4× test Cpds to each well except C1, C2, C3 wells
Add 2.5 μL of 8% DMSO to C1, C2, C3 wells • b. Put the 384-plate on ice • c. Add 5 μL of P/K mixture to each test Cpd wells and C1, C2 wells • d. Add 5 μL of PP Solution to C3 well • e. Add 2.5 μL of 1,33× kinase buffer to C1 and C3 wells • f. Add 2.5 μL of 4×ATP Solution to each test Cpd wells and C2 well, respectively.
Shake the plate for 30 Sec and centrifuge (1500 rpm, 1 min) • g. Seal the plate to protect from the light and incubate the plate for 1 hour at RT (25-30° C.) 2) Development reaction • a. Add 5 μL of the Development solution to all wells • b. Shake the plate for 30 Sec and centrifuge (1500 rpm, 1 min) • c. Seal the plate to protect from the light and incubate the plate for 1 hour at RT (25-30° C.) 3) Stop and read • a. Add 5 μL of the Stop reagent to all wells • b. Shake the plate for 30 Sec and centrifuge (1500 rpm, 1 min) • c. Measure the value of Coumarin (Ex400 nm, Em445 nm) and fluorescein (Ex400 nm, Em520 nm), respectively. 4. Data analysis
Emission Ratio (ER) Coumarin Emission (445 nm)/Fluorescein Emission (520 nm)
inhibition ratio (IR)=1−% Photest Cpd/% PhoC2%
IC50 Value: determined with add-in software for Microsoft Excel, XLfit™ (version 2.0) from ID Business Solutions (Guildford: UK)

| pIC50 (Syk kinase) | pIC50 (Flt3 kinase) | Structure (SMILES) | pIC50 (RBL-2H3 cells) |
| --- | --- | --- | --- |
| 7.00 to 9.00 | – | CN(C)c1ccc(-c2cc3nccnc3c(OC[C@@H]3CN(C(=O)CC4CC4)CCO3)n2)cc1 [Compound 70] | 6.00 to 7.00 |
| – | 5.55 | CN(C)c1ccc(-c2cc3nccnc3c(OC[C@@H]3CN(C(=O)[C@H]4CCOC4)CCO3)n2)cc1 [Compound 95] | 7.00 to 9.00 |
| – | < 5.52 | CN(C)c1ccc(-c2cc3nccnc3c(OC[C@@H]3CN(C(=O)C(F)F)CCO3)n2)cc1F [Compound 32] | 7.00 to 9.00 |
| – | < 5.52 | CN(C)c1ccc(-c2cc3nccnc3c(OC[C@@H]3CN(S(=O)(=O)C4CC4)CCO3)n2)cc1 [Compound 90] | 7.00 to 9.00 |
| 7.00 to 9.00 | – | CC(C)S(=O)(=O)N1CCO[C@H](COc2nc(-c3ccc(N(C)C)cc3)cc3nccnc23)C1 [Compound 89] | 6.00 to 7.00 |
| 7.00 to 9.00 | – | O=C(C(F)F)N1CCO[C@H](COc2nc(-c3ccc(C4CCOCC4)cc3)cc3nccnc23)C1 [Compound 9] | 6.00 to 7.00 |
| 7.00 to 9.00 | – | CN(C)c1ccc(-c2cc3nccnc3c(OC[C@@H]3CN(C(=O)[C@H]4CC[C@H](O)CC4)CCO3)n2)cc1 [Compound 75] | – |
| – | < 5.52 | CN(C)c1ccc(-c2cc3nccnc3c(OC[C@@H]3CN(C(=O)C4CC4)CCO3)n2)cc1 [Compound 69] | 7.00 to 9.00 |
| 7.00 to 9.00 | – | O=C(C(F)F)N1CCO[C@H](COc2nc(-c3ccc(N4CCOCC4)c(F)c3)cc3nccnc23)C1 [Compound 15] | 6.00 to 7.00 |
| – | – | CN(C)c1ccc(-c2cc3nccnc3c(OC[C@@H]3CN(S(=O)(=O)c4cccnc4)CCO3)n2)cc1 [Compound 92] | 7.00 to 9.00 |
| – | – | CN(C)c1ccc(-c2cc3nccnc3c(OC[C@@H]3CN(C(=O)c4cnn(C)c4)CCO3)n2)cc1 [Compound 87] | 6.00 to 7.00 |
| – | – | CNc1ccc(-c2cc3nccnc3c(O[C@@H]3CCOC3)n2)cc1 [Compound 133] | 7.00 to 9.00 |
| – | – | COCCN1CCC(c2ccc(-c3cc4nccnc4c(OC[C@@H]4CN(S(C)(=O)=O)CCO4)n3)cc2)CC1 [Compound 59] | 6.00 to 7.00 |
| – | – | COc1cc(-c2cc3nccnc3c(OC[C@@H]3CN(S(C)(=O)=O)CCO3)n2)ccc1OCCN(C)C [Compound 126] | 6.00 to 7.00 |
| – | – | CNc1ccc(-c2cc3nccnc3c(OC[C@@H]3CN(S(C)(=O)=O)CCO3)n2)cc1 [Compound 36] | 7.00 to 9.00 |
| – | – | CS(=O)(=O)N1CCO[C@H](COc2nc(-c3ccc(N4CCC(F)(F)CC4)cc3)cc3nccnc23)C1 [Compound 20] | 7.00 to 9.00 |
| – | – | O=C(C(F)F)N1CCO[C@H](COc2nc(-c3ccc(N4CCOCC4)cc3)cc3nccnc23)C1 [Compound 61] | 7.00 to 9.00 |
| 7.00 to 9.00 | – | CS(=O)(=O)N1CCO[C@H](COc2nc(-c3ccc4c(c3)OCCO4)cc3nccnc23)C1 [Compound 109] | 6.00 to 7.00 |
| – | – | CC(C)C(=O)N1CCO[C@H](COc2nc(-c3ccc(N(C)C)cc3)cc3nccnc23)C1 [Compound 68] | 6.00 to 7.00 |
| – | – | NS(=O)(=O)N1CCO[C@H](COc2nc(-c3ccc(N4CCOCC4)cc3)cc3nccnc23)C1 [Compound 62] | 7.00 to 9.00 |

| pIC50 (Syk kinase) | pIC50 (Flt3 kinase) | Structure (SMILES) | pIC50 (RBL-2H3 cells) |
| --- | --- | --- | --- |
| – | – | NS(=O)(=O)N1CCO[C@H](COc2nc(-c3ccc(N4CCCCC4)cc3)cc3nccnc23)C1 [Compound 28] | 6.00 to 7.00 |
| – | – | CCS(=O)(=O)N1CCO[C@H](COc2nc(-c3ccc(N(C)C)cc3)cc3nccnc23)C1 [Compound 88] | 7.00 to 9.00 |
| – | 5.60 | CC(=O)N1CCO[C@H](COc2nc(-c3ccc(N(C)C)cc3)cc3nccnc23)C1 [Compound 67] | 7.00 to 9.00 |
| – | – | CS(=O)(=O)N1CCC(c2ccc(-c3cc4nccnc4c(O[C@@H]4CCOC4)n3)cc2)CC1 [Compound 124] | 7.00 to 9.00 |
| – | 5.70 | CN(C)c1ccc(-c2cc3nccnc3c(OC[C@@H]3CN(S(C)(=O)=O)CCO3)n2)cc1 [Compound 94] | 7.00 to 9.00 |
| – | – | NC(=O)N1CCO[C@H](COc2nc(-c3ccc(N4CCOCC4)cc3)cc3nccnc23)C1 [Compound 63] | 6.00 to 7.00 |
| – | – | CN(C)c1ccc(-c2cc3nccnc3c(OC[C@@H]3CN(C(=O)[C@@H]4CCOC4)CCO3)n2)cc1 [Compound 72] | 6.00 to 7.00 |
| – | – | CN(C)c1ccc(-c2cc3nccnc3c(OC[C@@H]3CN(C(=O)c4ncc[nH]4)CCO3)n2)cc1 [Compound 86] | 6.00 to 7.00 |
| – | < 5.52 | CN(C)c1ccc(-c2cc3nccnc3c(OC[C@@H]3CN(C(=O)C(F)F)CCO3)n2)cc1 [Compound 100] | 7.00 to 9.00 |
| – | – | CS(=O)(=O)N1CCO[C@H](COc2nc(-c3ccc(N4CCN(CCO)CC4)cc3)cc3nccnc23)C1 [Compound 27] | 6.00 to 7.00 |
| – | – | O=C(C(F)F)N1CCO[C@H](COc2nc(-c3ccc(N4CCNCC4)cc3)cc3nccnc23)C1 [Compound 6, (S)-2,2-difluoro-1-(2-((7-(4-(piperazin-1-yl)phenyl)pyrido[4,3-b]pyrazin-5-yloxy)methyl)morpholino)ethanone] | 6.00 to 7.00 |
| – | – | CS(=O)(=O)N1CCO[C@H](COc2nc(-c3ccc(N4CCNCC4)cc3)cc3nccnc23)C1 [Compound 14] | 6.00 to 7.00 |
| – | – | C[C@@H]1CN(c2ccc(-c3cc4nccnc4c(OC[C@@H]4CN(S(C)(=O)=O)CCO4)n3)cc2)C[C@H](C)O1 [Compound 19] | 6.00 to 7.00 |
| – | – | CNc1ccc(-c2cc3nccnc3c(OC[C@@H]3CN(C(=O)[C@H]4CCCO4)CCO3)n2)cc1 [Compound 51] | 6.00 to 7.00 |
| – | – | CN(C)c1ccc(-c2cc3nccnc3c(OC[C@@H]3CN(S(=O)(=O)CCN4CC[C@@H](O)C4)CCO3)n2)cc1 [Compound 102] | 6.00 to 7.00 |
| – | – | CC(=O)N1CCC(c2ccc(-c3cc4nccnc4c(OC[C@@H]4CN(C(C)=O)CCO4)n3)cc2)CC1 [Compound 54] | 6.00 to 7.00 |
| – | – | CNC(=O)COc1ccc(-c2cc3nccnc3c(OC[C@@H]3CN(S(C)(=O)=O)CCO3)n2)cc1 [Compound 129] | 6.00 to 7.00 |
| – | – | Cn1ccc2cc(-c3cc4nccnc4c(OC[C@@H]4CN(S(C)(=O)=O)CCO4)n3)ccc21 [Compound 39] | 7.00 to 9.00 |
| – | – | CNc1ccc(-c2cc3nccnc3c(OC[C@@H]3CN(S(C)(=O)=O)CCO3)n2)cc1F [Compound 52] | 7.00 to 9.00 |
| – | – | Cn1ccc2ccc(-c3cc4nccnc4c(OC[C@@H]4CN(S(C)(=O)=O)CCO4)n3)cc21 [Compound 120] | 7.00 to 9.00 |

Reference: patent US20150307491A1, “SUBSTITUTED PYRIDOPYRAZINES AS SYK INHIBITORS” (HUTCHISON MEDIPHARMA LIMITED, priority 2012, published 2015)
